Data from patent publication US20230235282A1, “SERUM-FREE INDUCTION METHOD FOR SENSORY NEURON CELL” (IREGENE THERAPEUTICS LTD, priority 2020, published 2023).
Read-outs that look alike come from different tables or passages of the source.

Tests used:
[1] = system: sensory neuron cells from CD34+-derived induced pluripotent stem cells; assay: Morphology / axon formation of induced sensory neuron cells; format: cell-based, human; conditions: for axon formation: low (3 μM), medium (6 μM) and high (10 μM) concentration
Method: After obtaining the above-mentioned various sensory nerve precursor cells, the medium was removed, and cells were washed with DPBS, and then treated with 0.05% trypsin/EDTA at 37° C. for 5 minutes, and then cell digestion was terminated with DMEM. After the cells were washed and centrifuged, the cells were re-seeded in a T25 culture flask at 1-5×10^5 per plate, and the sensory nerve precursor cells were induced to differentiate and expand into mature sensory neurons by using sensory neuron cell medium. The conditions for cell culture were 37° C., 5% CO2.

[2] = system: sensory neuron cells from CD34+-derived induced pluripotent stem cells; assay: Q-PCR of marker genes in induced sensory neuron cells
Method: Total RNA from different sensory neuron cells was extracted by RNeasy Mini or Micro Kit (QIAGEN), and cDNA was synthesized from 1 mg RNA by SuperScript III First-Strand Synthesis System (Invitrogen). SYBR Premix Ex Taq (TaKaRa) and Thermal Cycler Dice Real Time System (TaKaRa) were used for labeling and reaction of Quantitative PCR, and beta-Actin was used as internal control. All data were analyzed by delta-Ct method. Triplicates were used for each group of experiments, and statistics were performed with ANOVA.

[3] = system: sensory nerve precursor cells from CD34+-derived cells; assay: Induction of sensory nerve precursor cells with different small molecules (morphology, Q-PCR of precursor markers); format: cell-based, human; conditions: 5 μM in induction medium
Method: When the induced pluripotent stem cells reached 70% coverage, they were digested with 0.05% trypsin/EDTA for 5 min at 37° C., and the cell digestion was terminated by using DMEM. After the cells were washed and centrifuged, they were re-seeded in a T25 culture plate at 2×10^5 per flask, and cultured in a sensory neuron induction medium at 37° C., 5% CO2 (Panasonic, MCO-18AC) for 10 days until the formation of neural plate, which confirmed the formation of sensory nerve precursor cells.
All data were analyzed by delta-Ct method.
(5.2) Taking CD34+-derived cells as an example, different small molecules (5 μM RepSox, 5 μM SB525334 and 5 μM TEW-7197 molecules) were used to replace the LY2157299 in the sensory neuron induction medium N2GS212I-2 in Section (3.1) of Example 3; steps in Section (3.1) of Example 3 were repeated to observe the effects of different small molecules on the induced sensory nerve precursor cells.
(5.3) Taking CD34+-derived cells as an example, steps of Example 4 (4.3) were repeated by using the sensory nerve precursor cells obtained in (5.2), and the effects of different small molecules on the expression of neuronal precursor cell markers during the formation of sensory nerve precursor cells were observed. As shown in the figures, the different inhibitor molecules were not only able to form neuron precursor cells (forming a neural plate structure shown in the figure), but also able to increase the expressions of neuron precursor cell markers.

[4] = Osmotic pressure of the culture system by freezing point osmometer; format: physicochemical
Method: In order to observe the effect of different concentrations of glycine-glutamine monohydrate on osmotic pressure, the effect of different concentrations of glycine-glutamine monohydrate on the osmotic pressure of culture system was detected by using an automatic freezing point osmometer (FM-8P, Shanghai Medical University Instrument Co., Ltd.), and specific operations were performed according to the product manual (FM-8P, Shanghai Medical University Instrument Co., Ltd.).

sodium ion channel 1.7 = biological target: T1, sodium ion channel 1.7 (Homo sapiens, UniProt Q15858); assay: MEA spontaneous discharge after PF-05089771; format: cell-based; conditions: for electrophysiological strength of sodium ion channels of induced cells: various concentrations in induction/culture medium, after 1 μM PF-05089771, fibroblast-derived
T1 construct: endogenous in cells; host or cells: sensory neurons induced from human fibroblast-derived iPSCs
T1 sequence (Q15858 whole entry): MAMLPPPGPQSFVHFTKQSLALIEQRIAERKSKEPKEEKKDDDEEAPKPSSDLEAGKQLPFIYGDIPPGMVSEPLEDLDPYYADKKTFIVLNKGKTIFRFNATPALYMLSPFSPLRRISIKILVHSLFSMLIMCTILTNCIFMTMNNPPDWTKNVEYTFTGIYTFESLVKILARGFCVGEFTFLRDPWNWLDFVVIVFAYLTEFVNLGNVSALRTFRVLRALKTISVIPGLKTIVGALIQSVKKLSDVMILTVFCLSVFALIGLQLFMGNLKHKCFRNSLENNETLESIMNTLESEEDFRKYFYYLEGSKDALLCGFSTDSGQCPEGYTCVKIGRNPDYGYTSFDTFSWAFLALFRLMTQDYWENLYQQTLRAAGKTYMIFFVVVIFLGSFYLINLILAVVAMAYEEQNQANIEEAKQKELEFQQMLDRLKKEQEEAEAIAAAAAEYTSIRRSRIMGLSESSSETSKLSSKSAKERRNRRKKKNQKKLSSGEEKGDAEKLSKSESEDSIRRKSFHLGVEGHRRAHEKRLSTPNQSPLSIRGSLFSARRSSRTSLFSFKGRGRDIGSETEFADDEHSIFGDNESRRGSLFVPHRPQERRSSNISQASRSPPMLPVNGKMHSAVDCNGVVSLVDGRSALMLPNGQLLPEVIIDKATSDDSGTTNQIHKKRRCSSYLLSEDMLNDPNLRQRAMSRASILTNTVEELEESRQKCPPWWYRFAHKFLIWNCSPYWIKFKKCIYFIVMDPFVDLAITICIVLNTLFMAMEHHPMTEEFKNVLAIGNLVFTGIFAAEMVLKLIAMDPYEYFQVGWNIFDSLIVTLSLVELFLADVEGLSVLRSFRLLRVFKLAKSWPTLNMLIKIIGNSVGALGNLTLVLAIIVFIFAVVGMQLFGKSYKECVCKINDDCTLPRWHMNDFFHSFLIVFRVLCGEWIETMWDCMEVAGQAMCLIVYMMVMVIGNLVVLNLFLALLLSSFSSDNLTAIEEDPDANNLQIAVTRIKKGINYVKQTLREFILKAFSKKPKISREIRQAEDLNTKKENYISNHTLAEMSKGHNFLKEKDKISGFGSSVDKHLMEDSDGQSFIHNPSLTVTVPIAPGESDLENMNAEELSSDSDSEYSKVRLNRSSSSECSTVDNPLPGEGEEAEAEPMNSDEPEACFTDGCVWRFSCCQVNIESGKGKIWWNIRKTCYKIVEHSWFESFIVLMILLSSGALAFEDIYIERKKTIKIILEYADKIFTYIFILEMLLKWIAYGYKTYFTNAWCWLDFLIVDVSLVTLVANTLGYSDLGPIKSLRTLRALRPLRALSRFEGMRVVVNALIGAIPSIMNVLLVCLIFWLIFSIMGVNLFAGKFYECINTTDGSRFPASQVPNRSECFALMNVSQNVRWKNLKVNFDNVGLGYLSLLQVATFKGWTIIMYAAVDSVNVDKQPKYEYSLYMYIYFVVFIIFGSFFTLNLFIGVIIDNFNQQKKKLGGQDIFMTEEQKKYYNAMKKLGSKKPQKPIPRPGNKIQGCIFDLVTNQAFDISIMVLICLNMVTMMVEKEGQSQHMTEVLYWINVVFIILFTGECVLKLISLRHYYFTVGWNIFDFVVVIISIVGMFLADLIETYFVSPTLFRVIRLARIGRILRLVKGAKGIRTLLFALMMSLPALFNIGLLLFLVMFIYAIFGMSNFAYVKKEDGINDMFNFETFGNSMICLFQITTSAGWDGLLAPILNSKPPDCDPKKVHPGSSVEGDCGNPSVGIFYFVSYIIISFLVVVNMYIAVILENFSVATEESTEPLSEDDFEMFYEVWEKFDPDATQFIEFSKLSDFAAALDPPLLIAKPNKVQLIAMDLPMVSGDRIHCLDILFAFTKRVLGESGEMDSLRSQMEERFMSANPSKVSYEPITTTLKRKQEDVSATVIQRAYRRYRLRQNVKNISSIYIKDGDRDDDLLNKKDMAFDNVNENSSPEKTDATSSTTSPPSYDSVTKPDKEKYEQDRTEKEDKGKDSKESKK

[5] = system: induced sensory neurons derived from fibroblasts; assay: Cyquant cell viability assay; format: cell-based, human; conditions: day 1, 3, 5, 10; different concentrations of NT3
Method: The cell viability was quantitatively detected by Cyquant assay to compare the effects of different combinations of small molecule compounds on maintaining physiological states of cells during long-term culture of induced sensory neurons.
Cell plate coating was performed in a 96-well opaque cell culture plate according to the method in Example 4 (4.4.1). […] The cells were cultured in the sensory neuron cell induction medium of Example 3 with different concentrations of NT3, and the culture conditions were 37° C., 5% carbon dioxide, and the medium was half quantity changed every three days. The medium in the known method was used as a control group. Samples were taken at day 1, day 3, day 5 and day 10, respectively, and the cell viability detection was carried out by using CyQuant Kit (Invitrogen, X12223) according to the instruction manual, and date were read by SpectraMax i3 Multi-Mode Microplate Reader (VWR, ID3-STD).

c1ccc2c(-c3cnn4cc(-c5ccc(N6CCNCC6)cc5)cnc34)ccnc2c1 [LDN193189]
induction of cell types with neural axons ([1]; 12 nM, 50 nM and 180 nM): cell types with neural axons can be induced
expression of Caspase3 relative to serum control group ([2]; LDN193189 180 nM or more): more than 1.5 times
expression of sodium ion channel 1.8 (SCN10A) ([2]; LDN193189 below 12 nM): lower than that in serum control

Cc1cccc(-c2[nH]ncc2-c2ccc3ncccc3n2)n1 [RepSox]
formation of neuron precursor cells (neural plate structure) [3]: neuron precursor cells formed

CHIR98014
expression of SCN11A (Nav1.9) compared with the serum induction method [2]: significantly increased
expression of ion channel protein [2]: lower than normal level
expression of neuron marker Tuj [2]: lower than that at other concentrations

Cc1cccc(-c2[nH]c(CNc3ccccc3F)nc2-c2ccc3ncnn3c2)n1 [TEW-7197]
formation of neuron precursor cells (neural plate structure) [3]: neuron precursor cells formed

O=S(=O)(O)CCN1CCN(CCO)CC1 [HEPES buffer, HEPES]
cell morphology ([1]; HEPES buffer 5 mM, 10 mM, 15 mM): morphologically normal
cell tolerance ([1]; high concentration (15 mM)): cell intolerance began to appear
osmotic pressure with increase of concentration ([4]; HEPES buffer in medium): increased linearly
osmotic pressure of the culture system ([4]; concentration more than 15 mM): > 320 mOsm/kg

Cc1c[nH]c(/C=C2\C(=O)Nc3ccccc32)c1CCC(=O)O [SU5402]
axon formation [1]: could form axons
electrophysiological strength of sodium ion channels of induced cells (sodium ion channel 1.7): significantly improved
cell death marker CASP3 ([2]; SU5402 higher than 15 μM): significantly increased
expression of ion channel protein compared with serum induction method ([2]; SU5402 lower than 3 μM): lower than the control level

Cc1cccc(-c2nn3c(c2-c2ccnc4ccc(C(N)=O)cc24)CCC3)n1 [LY2157299]
formation of neuron precursor cells (neural plate structure) [3]: neuron precursor cells formed
antagonism against PF-05089771 of the induced neurons (sodium ion channel 1.7; neurons induced by using LY2157299, 1 μM PF-05089771): more antagonism against PF-05089771
electrophysiological strength of sodium ion channels of induced cells (sodium ion channel 1.7): significantly improved
expressions of SCN9A and SCN11A compared with the serum induction method ([2]; 7.5 μM and 25 μM): significantly increased
expression of various sodium ion channel proteins versus concentration ([2]; Q-PCR, different LY2157299 concentrations in induction medium): linear increase in concentration versus protein expression
ion channel protein expressions ([2]; concentrations of below 50 nM): significantly lower than normal levels

C[C@H](NC(=O)Cc1cc(F)cc(F)c1)C(=O)N[C@H](C(=O)OC(C)(C)C)c1ccccc1 [DAPT]
axon formation [1]: able to form axons
induced neuron cell markers and peripheral sensory neuron cell markers ([2]; DAPT lower than 3 μM): much lower than those in the serum control group
expression of neuron marker Tuj ([2]; DAPT more than 10 μM): increased
expression of sodium ion channel 1.8 (SCN10A) ([2]; DAPT more than 10 μM): decreased

Cc1cccc(-c2[nH]c(C(C)(C)C)nc2-c2ccc3nccnc3c2)n1 [SB525334]
formation of neuron precursor cells (neural plate structure) [3]: neuron precursor cells formed

B1: NT3: human-NT3 (Novoprotein, Cat. No. C079), added to sensory neuron cell medium (protein, UniProt P20783 139-257, looked up)
Neurotrophin-3: YAEHKSHRGEYSVCDSESLWVTDKSSAIDIRGHQVTVLGEIKTGNSPVKQYFYETRCKEARPVKNGCRGIDDKHWNSQCKTSQTYVRALTSENNKLVGWRWIRIDTSCVCALSRKIGRT
modifications: Neurotrophin-3
notes: human-NT3 (Novoprotein, Cat. No. C079), added to sensory neuron cell medium
in vitro viability of induced neurons in long-term culture vs serum induction method [5]: effectively increase the in vitro viability
